Measurements reported in the supplement of paper PMC5908809.

Key:
[1] = test system: normal NK cells expanded with K562-aAPC; experiment: percent inhibition of viability; higher = more inhibition; conditions: 72 h, IL-2 2.5 ng/mL
Protocol: (§1)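 Drug sensitivity and resistance testing on K562-aAPC-expanded normal NK cells: 5 concentrations (10-fold steps over a 10,000-fold range), 72 h at 37 °C, viability by CellTiter-Glo normalised to DMSO and benzethonium chloride controls; DSS from the fitted curve.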

[2] = test system: DERL-7 (IL-2 2.5 ng/mL); experiment: as above; conditions: 72 h
[3] = test system: IMC-1 (IL-2 20 ng/mL); experiment: as above; conditions: 72 h
[4] = test system: KAI3 (IL-2 2.5 ng/mL); experiment: as above; conditions: 72 h
[5] = test system: KHYG-1 (IL-2 2.5 ng/mL); experiment: as above; conditions: 72 h
[6] = test system: NK-92 (IL-2 2.5 ng/mL); experiment: as above; conditions: 72 h
[7] = test system: NK-YS (IL-2 2.5 ng/mL); experiment: as above; conditions: 72 h
[8] = test system: NKL (IL-2 2.5 ng/mL); experiment: as above; conditions: 72 h
[9] = test system: SNK-6 (IL-2 2.5 ng/mL); experiment: as above; conditions: 72 h
[10] = test system: YT (IL-2 2.5 ng/mL); experiment: as above; conditions: 72 h
[11] = test system: normal primary NK cells, pool 1 (3 donors) (IL-2 2.5 ng/mL); experiment: as above; conditions: 72 h
[12] = test system: normal primary NK cells, pool 1 (3 donors), resting (IL-2 0 ng/mL); experiment: as above; conditions: 72 h
[13] = test system: normal primary NK cells, pool 2 (3 donors) (IL-2 2.5 ng/mL); experiment: as above; conditions: 72 h
[14] = test system: normal primary NK cells, pool 3 (3 donors) (IL-2 2.5 ng/mL); experiment: as above; conditions: 72 h
[15] = test system: normal NK cells expanded with K562-aAPC; experiment: drug sensitivity score (DSS) (DSS units); higher = more sensitive; extreme values may be limits of the assay; conditions: 72 h; IL-2 2.5 ng/mL
Protocol: as §1

[16] = test system: DERL-7 (IL-2 2.5 ng/mL); experiment: as above; conditions: 72 h
[17] = test system: IMC-1 (IL-2 20 ng/mL); experiment: as above; conditions: 72 h
[18] = test system: KAI3 (IL-2 2.5 ng/mL); experiment: as above; conditions: 72 h
[19] = test system: KHYG-1 (IL-2 2.5 ng/mL); experiment: as above; conditions: 72 h
[20] = test system: NK-92 (IL-2 2.5 ng/mL); experiment: as above; conditions: 72 h
[21] = test system: NK-YS (IL-2 2.5 ng/mL); experiment: as above; conditions: 72 h
[22] = test system: NKL (IL-2 2.5 ng/mL); experiment: as above; conditions: 72 h
[23] = test system: SNK-6 (IL-2 2.5 ng/mL); experiment: as above; conditions: 72 h
[24] = test system: YT (IL-2 2.5 ng/mL); experiment: as above; conditions: 72 h
[25] = test system: normal primary NK cells, pool 1 (3 donors) (IL-2 2.5 ng/mL); experiment: as above; conditions: 72 h
[26] = test system: normal primary NK cells, pool 1 (3 donors), resting (IL-2 0 ng/mL); experiment: as above; conditions: 72 h
[27] = test system: normal primary NK cells, pool 2 (3 donors) (IL-2 2.5 ng/mL); experiment: as above; conditions: 72 h
[28] = test system: normal primary NK cells, pool 3 (3 donors) (IL-2 2.5 ng/mL); experiment: as above; conditions: 72 h

CO[C@@H]1[C@H](N(C)C(=O)c2ccccc2)C[C@H]2O[C@]1(C)n1c3ccccc3c3c4c(c5c6ccccc6n2c5c31)C(=O)NC4 [Midostaurin] (max concentration tested 10000 nM)
percent inhibition of viability [%]
Conditions	1 nM	10 nM	100 nM	1000 nM	10000 nM
[1]	-0.81	-0.07	14.2	93.4	95.7
[2]	2.78	1.24	18.5	93.3	98.4
[3]	-6.1	-6.16	-11.8	87.9	100
[4]	0.66	3.14	21.1	89.4	91.2
[5]	2.07	-3.07	17	105	99.1
[6]	7.3	4.05	7.33	80.9	89.5
[7]	1.77	2.14	11.2	65.2	78.6
[8]	-4.72	-9.81	28.3	79.7	77.5
[9]	-0.77	8.75	42.7	95.2	97.3
[10]	4.08	0.3	9.56	51.4	69.3
[11]	-13	-12.2	25.8	79.6	88.2
[12]	-2.01	-12	7.17	29	62.3
[13]	-14.8	-10.1	-0.23	76.7	85.8
[14]	-7.31	-6.65	1.51	63.5	83

Conditions	drug sensitivity score
[15]	19.3
[16]	19.5
[17]	15.6
[18]	19.3
[19]	20.9
[20]	15.8
[21]	13.5
[22]	18.5
[23]	22.2
[24]	10.8
[25]	18
[26]	6.7
[27]	14
[28]	12.1

CNC(=O)c1nn(C)c2c1C(C)(C)Cc1cnc(Nc3ccc(N4CCN(C)CC4)cc3)nc1-2 [Milciclib] (max concentration tested 10000 nM)
percent inhibition of viability [%]
Conditions	1 nM	10 nM	100 nM	1000 nM	10000 nM
[1]	4.02	-0.67	11	58	101
[2]	3.27	-10.3	4.85	67.1	98.4
[3]	-3.68	-8.88	-4.95	-5.54	101
[4]	2.07	-4.15	13.3	40	103
[5]	0.72	0.82	16.2	88.3	108
[6]	-4.06	-2.4	1.56	39	101
[7]	-3.1	-3.45	7.23	40.2	103
[8]	-13.6	-18.8	-12.2	37.9	106
[9]	2.94	-5.15	-12.8	17.8	93.1
[10]	1.63	0.13	-0.36	21	106
[11]	-4.67	-0.64	-2.17	41.2	94.1
[12]	-2.66	2.94	14.9	61.7	88.7
[13]	-6.1	-7.12	7.61	55.9	96.4
[14]	-13.5	-12.3	-7.15	27.3	98.8

Conditions	drug sensitivity score
[15]	12.8
[16]	13.6
[17]	5.2
[18]	10.3
[19]	18.2
[20]	10.8
[21]	10.9
[22]	10.7
[23]	8.04
[24]	8.93
[25]	10.6
[26]	13.5
[27]	12.2
[28]	9.53

CO[C@@]12[C@H](COC(N)=O)C3=C(C(=O)C(C)=C(N)C3=O)N1C[C@@H]1N[C@@H]12 [Mitomycin C] (max concentration tested 10000 nM)
percent inhibition of viability [%]
Conditions	1 nM	10 nM	100 nM	1000 nM	10000 nM
[1]	-6.75	-6.89	-6.31	1.66	36.7
[2]	-3.54	4.32	-0.35	-4.88	11.3
[3]	-2.35	2.42	2.75	5.66	98.4
[4]	-6	1.39	6.47	42.2	90.1
[5]	-11.3	-10.2	-3.76	90.6	106
[6]	-6.49	-1.15	-5.66	25.2	96
[7]	-3.94	-3.78	7.6	89.1	101
[8]	-16.1	-7.78	25.9	99.1	99.9
[9]	8	-22.7	-15.3	85.5	90
[10]	-7.65	-5.91	-4.19	-0.39	73.2
[11]	-7.25	13.3	6.96	7.9	35
[12]	3.33	21.6	12.1	19.2	72.1
[13]	-2.16	4.57	8.07	44.3	91.9
[14]	-2.62	8.35	8.1	31.6	94.6

Conditions	drug sensitivity score
[15]	1.99
[16]	0
[17]	6.29
[18]	9.91
[19]	16.3
[20]	9.13
[21]	17.2
[22]	21.9
[23]	14.8
[24]	4.01
[25]	2.74
[26]	6.45
[27]	10.3
[28]	9.16
